Laboratory results taken from ChEMBL document CHEMBL5678818, “Discovery of potent SOS1 inhibitors that block RAS activation via disruption of the RAS-SOS1 interaction” (Proc Natl Acad Sci U S A, 2019).

What was measured:
[1] = molecular target: T1, Ephrin type-B receptor 3 (Homo sapiens) (UniProt P54753); experiment: Inhibition of EPHB3 (unknown origin) assessed as residual activity at 1000 nM by KINOMEscan analysis relative to control
T1 sequence (whole entry): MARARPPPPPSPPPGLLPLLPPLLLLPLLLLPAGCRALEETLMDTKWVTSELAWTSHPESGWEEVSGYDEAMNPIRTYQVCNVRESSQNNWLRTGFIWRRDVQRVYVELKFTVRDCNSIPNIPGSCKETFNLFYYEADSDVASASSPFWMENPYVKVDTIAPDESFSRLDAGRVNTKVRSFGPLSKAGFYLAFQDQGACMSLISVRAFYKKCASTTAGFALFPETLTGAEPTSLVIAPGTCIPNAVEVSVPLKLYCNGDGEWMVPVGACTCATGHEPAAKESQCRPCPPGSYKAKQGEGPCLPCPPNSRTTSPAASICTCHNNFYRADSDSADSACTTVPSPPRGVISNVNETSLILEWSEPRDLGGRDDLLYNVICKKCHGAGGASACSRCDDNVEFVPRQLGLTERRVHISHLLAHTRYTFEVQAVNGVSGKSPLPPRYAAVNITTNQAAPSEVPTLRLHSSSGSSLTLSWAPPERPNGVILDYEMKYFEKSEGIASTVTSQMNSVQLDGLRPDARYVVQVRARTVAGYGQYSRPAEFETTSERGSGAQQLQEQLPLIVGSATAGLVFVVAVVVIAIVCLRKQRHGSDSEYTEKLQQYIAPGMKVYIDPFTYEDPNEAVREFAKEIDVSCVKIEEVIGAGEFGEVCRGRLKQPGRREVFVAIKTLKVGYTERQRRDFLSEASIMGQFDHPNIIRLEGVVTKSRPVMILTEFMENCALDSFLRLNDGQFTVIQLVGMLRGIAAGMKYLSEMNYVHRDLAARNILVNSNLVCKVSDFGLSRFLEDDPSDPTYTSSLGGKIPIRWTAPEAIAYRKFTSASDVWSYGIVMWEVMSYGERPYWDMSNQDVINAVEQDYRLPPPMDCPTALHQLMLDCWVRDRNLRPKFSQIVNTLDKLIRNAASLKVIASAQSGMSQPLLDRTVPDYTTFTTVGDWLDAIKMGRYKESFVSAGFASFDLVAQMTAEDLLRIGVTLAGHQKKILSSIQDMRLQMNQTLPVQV

[2] = molecular target: T2, Serine/threonine-protein kinase Nek10 (Homo sapiens) (UniProt Q6ZWH5); experiment: Inhibition of NEK10 (unknown origin) assessed as residual activity at 1000 nM by KINOMEscan analysis relative to control
T2 sequence (whole entry): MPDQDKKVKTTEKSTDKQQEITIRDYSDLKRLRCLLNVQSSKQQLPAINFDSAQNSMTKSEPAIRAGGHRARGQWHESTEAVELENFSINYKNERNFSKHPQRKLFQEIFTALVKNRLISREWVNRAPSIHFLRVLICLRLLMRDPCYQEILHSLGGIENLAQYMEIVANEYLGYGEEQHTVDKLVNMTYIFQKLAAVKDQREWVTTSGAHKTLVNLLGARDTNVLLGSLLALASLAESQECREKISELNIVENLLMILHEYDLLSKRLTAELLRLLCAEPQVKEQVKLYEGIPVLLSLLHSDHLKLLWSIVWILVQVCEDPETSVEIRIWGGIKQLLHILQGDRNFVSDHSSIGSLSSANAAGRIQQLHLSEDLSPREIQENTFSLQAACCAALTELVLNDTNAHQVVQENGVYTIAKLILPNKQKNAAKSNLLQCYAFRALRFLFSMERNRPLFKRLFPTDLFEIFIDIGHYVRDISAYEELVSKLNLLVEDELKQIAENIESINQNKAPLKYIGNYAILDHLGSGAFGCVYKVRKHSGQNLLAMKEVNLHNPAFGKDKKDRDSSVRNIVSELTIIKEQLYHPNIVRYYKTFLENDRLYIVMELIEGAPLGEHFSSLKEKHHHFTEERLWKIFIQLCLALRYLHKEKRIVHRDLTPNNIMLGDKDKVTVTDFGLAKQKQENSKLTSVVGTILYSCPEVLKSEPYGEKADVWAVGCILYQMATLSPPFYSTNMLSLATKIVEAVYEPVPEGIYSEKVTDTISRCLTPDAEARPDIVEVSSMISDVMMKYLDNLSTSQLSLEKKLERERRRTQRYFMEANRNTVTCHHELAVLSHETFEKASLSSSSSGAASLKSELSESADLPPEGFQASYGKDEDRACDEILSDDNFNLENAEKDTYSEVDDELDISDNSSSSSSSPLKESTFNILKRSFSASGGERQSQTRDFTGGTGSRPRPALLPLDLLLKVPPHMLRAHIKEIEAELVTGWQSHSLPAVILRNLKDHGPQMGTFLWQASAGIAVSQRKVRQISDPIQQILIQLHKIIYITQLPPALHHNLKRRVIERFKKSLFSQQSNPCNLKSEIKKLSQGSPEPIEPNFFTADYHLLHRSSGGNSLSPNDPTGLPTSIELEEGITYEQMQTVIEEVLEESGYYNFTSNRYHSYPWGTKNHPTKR

[3] = molecular target: Ribosomal protein S6 kinase alpha-4 (Homo sapiens) (UniProt O75676); experiment: Inhibition of N-terminal RPS6KA4 […] domain 1 (unknown origin) assessed as residual activity at 1000 nM by KINOMEscan analysis relative to control
[4] = molecular target: Ribosomal protein S6 kinase alpha-6 (Homo sapiens) (UniProt Q9UK32); experiment: Inhibition of C-terminal RSK4 kinetic domain 2 (unknown origin) assessed as residual activity at 1000 nM by KINOMEscan analysis relative to control
[5] = molecular target: SRSF protein kinase 2 (Homo sapiens) (UniProt P78362); experiment: Inhibition of SRPK2 (unknown origin) assessed as residual activity at 1000 nM by KINOMEscan analysis relative to control
Sequence of SRSF protein kinase 2 (Homo sapiens) (P78362 whole entry, looked up): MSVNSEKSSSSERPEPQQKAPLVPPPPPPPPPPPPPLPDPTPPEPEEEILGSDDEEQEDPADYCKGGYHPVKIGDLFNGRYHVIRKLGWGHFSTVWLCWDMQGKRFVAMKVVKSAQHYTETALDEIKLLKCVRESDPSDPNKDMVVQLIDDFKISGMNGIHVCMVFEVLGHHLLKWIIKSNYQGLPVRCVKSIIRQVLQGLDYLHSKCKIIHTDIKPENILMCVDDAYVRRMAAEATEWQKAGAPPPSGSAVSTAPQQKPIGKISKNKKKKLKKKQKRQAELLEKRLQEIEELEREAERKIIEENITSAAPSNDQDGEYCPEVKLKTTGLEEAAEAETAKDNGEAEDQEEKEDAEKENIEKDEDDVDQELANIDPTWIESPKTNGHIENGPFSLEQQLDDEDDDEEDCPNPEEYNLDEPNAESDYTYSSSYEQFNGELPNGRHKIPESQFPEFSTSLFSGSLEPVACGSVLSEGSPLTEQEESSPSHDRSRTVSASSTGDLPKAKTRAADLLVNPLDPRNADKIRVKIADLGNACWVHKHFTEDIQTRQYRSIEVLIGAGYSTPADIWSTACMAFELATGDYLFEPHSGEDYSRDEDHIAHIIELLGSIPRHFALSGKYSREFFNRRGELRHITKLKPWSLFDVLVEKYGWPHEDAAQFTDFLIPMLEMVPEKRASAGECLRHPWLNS

Sequence of Ribosomal protein S6 kinase alpha-4 (Homo sapiens) (O75676 whole entry, looked up, the tested form may be a part): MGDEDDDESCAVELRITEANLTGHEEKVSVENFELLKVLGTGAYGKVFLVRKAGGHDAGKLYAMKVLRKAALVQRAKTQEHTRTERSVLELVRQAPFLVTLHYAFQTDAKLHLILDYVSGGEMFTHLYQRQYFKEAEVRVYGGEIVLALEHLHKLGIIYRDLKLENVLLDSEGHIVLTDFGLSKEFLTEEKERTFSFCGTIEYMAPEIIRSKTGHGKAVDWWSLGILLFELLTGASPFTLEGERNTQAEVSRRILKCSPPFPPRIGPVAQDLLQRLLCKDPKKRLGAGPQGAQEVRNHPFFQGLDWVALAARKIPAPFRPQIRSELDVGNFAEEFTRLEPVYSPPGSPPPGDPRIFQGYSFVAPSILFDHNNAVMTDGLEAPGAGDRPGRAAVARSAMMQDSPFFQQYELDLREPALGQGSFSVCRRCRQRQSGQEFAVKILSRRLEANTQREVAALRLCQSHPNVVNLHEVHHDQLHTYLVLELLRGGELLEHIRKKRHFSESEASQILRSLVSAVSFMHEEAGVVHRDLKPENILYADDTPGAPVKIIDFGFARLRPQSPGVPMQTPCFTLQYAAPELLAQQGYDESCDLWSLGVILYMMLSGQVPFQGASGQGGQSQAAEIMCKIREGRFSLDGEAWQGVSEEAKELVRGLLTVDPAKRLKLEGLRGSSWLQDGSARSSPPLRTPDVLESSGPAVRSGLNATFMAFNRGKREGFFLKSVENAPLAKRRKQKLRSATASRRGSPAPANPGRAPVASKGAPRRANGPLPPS
Sequence of Ribosomal protein S6 kinase alpha-6 (Homo sapiens) (Q9UK32 whole entry, the tested form may be a part): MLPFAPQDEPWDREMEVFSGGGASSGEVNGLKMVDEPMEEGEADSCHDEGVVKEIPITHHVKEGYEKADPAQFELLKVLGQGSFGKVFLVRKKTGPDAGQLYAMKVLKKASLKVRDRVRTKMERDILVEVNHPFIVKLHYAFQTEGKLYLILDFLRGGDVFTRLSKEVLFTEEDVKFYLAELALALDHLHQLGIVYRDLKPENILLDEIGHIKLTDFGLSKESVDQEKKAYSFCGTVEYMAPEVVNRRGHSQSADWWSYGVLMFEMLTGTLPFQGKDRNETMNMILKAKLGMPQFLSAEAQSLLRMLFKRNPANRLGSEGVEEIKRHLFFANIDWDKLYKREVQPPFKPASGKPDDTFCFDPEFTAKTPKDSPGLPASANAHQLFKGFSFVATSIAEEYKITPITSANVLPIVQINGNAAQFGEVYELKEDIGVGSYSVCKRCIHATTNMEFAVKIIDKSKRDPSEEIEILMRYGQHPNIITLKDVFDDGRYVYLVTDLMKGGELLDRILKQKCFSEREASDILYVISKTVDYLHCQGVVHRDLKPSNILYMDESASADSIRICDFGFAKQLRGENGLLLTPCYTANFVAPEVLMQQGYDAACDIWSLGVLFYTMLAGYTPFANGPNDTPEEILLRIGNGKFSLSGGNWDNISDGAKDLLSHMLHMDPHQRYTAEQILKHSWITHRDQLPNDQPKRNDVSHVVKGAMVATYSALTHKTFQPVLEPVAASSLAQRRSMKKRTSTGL

Compound	Activity [1]	Activity [2]	Activity [3]	Activity [4]	Activity [5]
COc1cc2nc(C)nc(N[C@H](C)c3cccc(-c4cn[nH]c4)c3)c2cc1OC	100%	90%	0%	53%	94%
COc1cc2ncnc(N[C@H](C)c3cccc4ccccc34)c2cc1OC	100%	68%	100%	95%	93%
